{"source": "paper PMC6193938", "about": "“Characterization of a novel AICARFT inhibitor which potently elevates ZMP and has anti-tumor activity in murine models” (Scientific Reports, 2018)", "key": {"[1]": {"conditions": "mouse, in vivo"}, "[2]": {"biological_target": "T1, KIT (Homo sapiens, UniProt P10721)", "T1 construct": "purchased CEREP Panlabs (Eurofins)", "T1 sequence (P10721 26-976)": "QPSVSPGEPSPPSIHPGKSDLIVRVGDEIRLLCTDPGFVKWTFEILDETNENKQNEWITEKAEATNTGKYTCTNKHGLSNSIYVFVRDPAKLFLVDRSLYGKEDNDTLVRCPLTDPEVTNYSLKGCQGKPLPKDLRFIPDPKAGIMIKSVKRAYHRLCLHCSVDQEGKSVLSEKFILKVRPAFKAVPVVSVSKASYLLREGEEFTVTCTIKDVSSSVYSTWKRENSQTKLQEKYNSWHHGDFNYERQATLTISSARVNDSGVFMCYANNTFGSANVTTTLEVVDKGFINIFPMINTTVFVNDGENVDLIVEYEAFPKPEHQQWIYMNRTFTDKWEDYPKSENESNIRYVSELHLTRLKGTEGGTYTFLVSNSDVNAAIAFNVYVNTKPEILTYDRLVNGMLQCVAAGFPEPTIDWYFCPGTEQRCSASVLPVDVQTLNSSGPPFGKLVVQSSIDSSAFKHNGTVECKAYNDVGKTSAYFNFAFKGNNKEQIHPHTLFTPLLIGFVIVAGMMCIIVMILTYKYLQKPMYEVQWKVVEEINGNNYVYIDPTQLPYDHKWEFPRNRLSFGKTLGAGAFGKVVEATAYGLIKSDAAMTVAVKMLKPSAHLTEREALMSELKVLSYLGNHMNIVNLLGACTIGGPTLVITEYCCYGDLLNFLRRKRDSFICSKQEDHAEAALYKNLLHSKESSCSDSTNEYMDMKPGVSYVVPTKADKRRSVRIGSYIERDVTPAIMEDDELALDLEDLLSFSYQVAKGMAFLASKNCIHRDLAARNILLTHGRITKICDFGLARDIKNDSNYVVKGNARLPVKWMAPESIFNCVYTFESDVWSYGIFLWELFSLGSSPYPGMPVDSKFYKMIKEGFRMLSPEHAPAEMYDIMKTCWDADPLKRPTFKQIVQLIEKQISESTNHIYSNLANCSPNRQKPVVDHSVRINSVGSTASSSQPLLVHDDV", "test": "CEREP protein kinase assay", "format": "biochemical"}, "[3]": {"tested_on": "NCI-H460 xenografts", "test": "Pharmacodynamic response of tumor metabolites, single PO dose, low folate chow", "format": "in vivo, mouse", "from_the_text": "Figure 4 Pharmacodynamic response of ZMP (purple), AICAR (blue), […] (green), dUMP (red), AMP (aqua) & GMP (orange) metabolites in tumors following a single PO dose of LSN3213128 in athymic nude mice."}, "[4]": {"biological_target": "T2, MNK2 (Homo sapiens, UniProt Q9HBH9)", "T2 construct": "purchased CEREP Panlabs (Eurofins)", "T2 sequence (Q9HBH9 whole entry)": "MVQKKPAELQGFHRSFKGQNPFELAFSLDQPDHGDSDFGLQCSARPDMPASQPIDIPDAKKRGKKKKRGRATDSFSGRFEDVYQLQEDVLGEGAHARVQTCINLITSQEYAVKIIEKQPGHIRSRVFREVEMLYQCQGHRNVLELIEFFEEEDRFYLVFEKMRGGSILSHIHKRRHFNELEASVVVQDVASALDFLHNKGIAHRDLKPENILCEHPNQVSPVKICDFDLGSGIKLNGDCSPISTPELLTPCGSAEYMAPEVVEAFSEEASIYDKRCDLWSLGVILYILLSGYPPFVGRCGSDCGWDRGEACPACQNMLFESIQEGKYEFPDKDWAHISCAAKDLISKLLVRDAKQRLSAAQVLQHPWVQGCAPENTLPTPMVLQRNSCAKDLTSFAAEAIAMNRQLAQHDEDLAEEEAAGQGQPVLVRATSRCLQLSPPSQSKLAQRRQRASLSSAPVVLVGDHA", "test": "CEREP protein kinase assay", "format": "biochemical"}, "[5]": {"biological_target": "T3, MLK1 (Homo sapiens, UniProt P80192)", "T3 construct": "purchased CEREP Panlabs (Eurofins)", "T3 sequence (P80192 whole entry)": "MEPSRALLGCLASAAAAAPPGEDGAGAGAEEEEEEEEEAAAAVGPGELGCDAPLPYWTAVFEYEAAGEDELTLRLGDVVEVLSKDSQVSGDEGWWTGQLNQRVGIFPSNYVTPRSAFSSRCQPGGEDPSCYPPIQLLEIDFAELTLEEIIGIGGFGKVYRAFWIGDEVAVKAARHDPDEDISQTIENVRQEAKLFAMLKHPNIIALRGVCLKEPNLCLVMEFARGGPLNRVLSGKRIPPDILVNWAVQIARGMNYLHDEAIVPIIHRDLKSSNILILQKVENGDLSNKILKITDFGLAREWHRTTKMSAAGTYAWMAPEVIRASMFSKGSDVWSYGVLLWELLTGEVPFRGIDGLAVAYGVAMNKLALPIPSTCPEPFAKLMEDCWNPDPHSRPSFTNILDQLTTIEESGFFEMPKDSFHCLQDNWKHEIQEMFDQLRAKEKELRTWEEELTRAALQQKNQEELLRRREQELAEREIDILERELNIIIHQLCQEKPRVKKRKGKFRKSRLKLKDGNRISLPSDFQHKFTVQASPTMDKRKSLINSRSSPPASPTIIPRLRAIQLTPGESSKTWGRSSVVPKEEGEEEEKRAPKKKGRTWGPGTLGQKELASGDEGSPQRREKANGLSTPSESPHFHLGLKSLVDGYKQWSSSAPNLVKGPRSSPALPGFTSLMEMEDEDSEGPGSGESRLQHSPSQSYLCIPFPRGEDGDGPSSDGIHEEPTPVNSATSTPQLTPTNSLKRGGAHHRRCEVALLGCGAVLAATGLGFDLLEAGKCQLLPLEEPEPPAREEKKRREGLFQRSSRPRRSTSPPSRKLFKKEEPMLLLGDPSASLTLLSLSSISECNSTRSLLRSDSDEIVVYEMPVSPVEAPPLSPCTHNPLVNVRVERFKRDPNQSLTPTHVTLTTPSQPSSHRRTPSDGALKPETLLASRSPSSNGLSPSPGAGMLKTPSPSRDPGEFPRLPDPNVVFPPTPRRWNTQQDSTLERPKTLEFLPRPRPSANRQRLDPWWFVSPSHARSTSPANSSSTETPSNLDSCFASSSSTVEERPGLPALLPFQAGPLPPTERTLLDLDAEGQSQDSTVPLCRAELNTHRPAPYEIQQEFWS", "test": "CEREP protein kinase assay", "format": "biochemical"}, "[6]": {"biological_target": "T4, BRK (Homo sapiens, UniProt Q13882)", "T4 construct": "purchased CEREP Panlabs (Eurofins)", "T4 sequence (Q13882 whole entry)": "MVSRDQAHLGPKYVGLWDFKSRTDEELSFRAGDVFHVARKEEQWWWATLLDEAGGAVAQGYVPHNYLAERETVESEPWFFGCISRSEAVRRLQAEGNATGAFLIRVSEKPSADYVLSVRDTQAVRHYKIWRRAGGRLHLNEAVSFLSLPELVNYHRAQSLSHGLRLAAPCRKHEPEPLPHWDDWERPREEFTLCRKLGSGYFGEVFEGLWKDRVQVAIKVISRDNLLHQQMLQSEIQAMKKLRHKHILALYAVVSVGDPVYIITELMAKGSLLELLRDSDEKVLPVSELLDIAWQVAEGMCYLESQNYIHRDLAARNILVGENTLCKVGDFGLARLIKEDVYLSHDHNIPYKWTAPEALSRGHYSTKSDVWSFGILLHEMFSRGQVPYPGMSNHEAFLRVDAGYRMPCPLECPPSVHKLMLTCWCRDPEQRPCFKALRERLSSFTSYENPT", "test": "CEREP protein kinase assay", "format": "biochemical"}, "[7]": {"biological_target": "T5, SGK1 (Homo sapiens, UniProt O00141)", "T5 construct": "purchased CEREP Panlabs (Eurofins)", "T5 sequence (O00141 1-431)": "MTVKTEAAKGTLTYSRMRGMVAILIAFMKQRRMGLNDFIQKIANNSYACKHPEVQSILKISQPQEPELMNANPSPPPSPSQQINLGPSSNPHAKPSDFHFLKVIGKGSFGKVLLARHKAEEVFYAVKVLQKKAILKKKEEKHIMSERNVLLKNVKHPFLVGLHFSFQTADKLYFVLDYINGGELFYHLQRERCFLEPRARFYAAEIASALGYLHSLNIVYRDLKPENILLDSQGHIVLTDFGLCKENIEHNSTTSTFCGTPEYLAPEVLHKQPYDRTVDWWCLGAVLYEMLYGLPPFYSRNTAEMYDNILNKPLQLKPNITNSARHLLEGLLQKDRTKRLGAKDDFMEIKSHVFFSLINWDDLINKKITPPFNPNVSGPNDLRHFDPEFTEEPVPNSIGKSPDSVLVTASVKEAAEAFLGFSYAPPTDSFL", "test": "CEREP protein kinase assay", "format": "biochemical"}, "[8]": {"biological_target": "T6, ALK4 (Homo sapiens, UniProt P36896)", "T6 construct": "purchased CEREP Panlabs (Eurofins)", "T6 sequence (P36896 24-505)": "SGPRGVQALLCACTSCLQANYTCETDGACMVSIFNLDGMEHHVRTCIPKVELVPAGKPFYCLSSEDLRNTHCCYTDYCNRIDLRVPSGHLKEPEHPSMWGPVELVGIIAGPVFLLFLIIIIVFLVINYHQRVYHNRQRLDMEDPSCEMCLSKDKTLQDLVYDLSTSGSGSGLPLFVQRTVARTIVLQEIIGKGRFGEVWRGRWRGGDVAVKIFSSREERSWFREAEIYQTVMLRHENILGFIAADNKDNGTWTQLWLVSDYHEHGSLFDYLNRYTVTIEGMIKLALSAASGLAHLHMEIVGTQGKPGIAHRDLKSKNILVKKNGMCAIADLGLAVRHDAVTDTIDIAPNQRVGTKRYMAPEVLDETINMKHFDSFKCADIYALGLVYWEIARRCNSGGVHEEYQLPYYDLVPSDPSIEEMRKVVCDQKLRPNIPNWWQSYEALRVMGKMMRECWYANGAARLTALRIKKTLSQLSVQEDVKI", "test": "CEREP protein kinase assay", "format": "biochemical"}, "[9]": {"biological_target": "T7, DYRK2 (Homo sapiens, UniProt Q92630)", "T7 construct": "purchased CEREP Panlabs (Eurofins)", "T7 sequence (Q92630 1-601)": "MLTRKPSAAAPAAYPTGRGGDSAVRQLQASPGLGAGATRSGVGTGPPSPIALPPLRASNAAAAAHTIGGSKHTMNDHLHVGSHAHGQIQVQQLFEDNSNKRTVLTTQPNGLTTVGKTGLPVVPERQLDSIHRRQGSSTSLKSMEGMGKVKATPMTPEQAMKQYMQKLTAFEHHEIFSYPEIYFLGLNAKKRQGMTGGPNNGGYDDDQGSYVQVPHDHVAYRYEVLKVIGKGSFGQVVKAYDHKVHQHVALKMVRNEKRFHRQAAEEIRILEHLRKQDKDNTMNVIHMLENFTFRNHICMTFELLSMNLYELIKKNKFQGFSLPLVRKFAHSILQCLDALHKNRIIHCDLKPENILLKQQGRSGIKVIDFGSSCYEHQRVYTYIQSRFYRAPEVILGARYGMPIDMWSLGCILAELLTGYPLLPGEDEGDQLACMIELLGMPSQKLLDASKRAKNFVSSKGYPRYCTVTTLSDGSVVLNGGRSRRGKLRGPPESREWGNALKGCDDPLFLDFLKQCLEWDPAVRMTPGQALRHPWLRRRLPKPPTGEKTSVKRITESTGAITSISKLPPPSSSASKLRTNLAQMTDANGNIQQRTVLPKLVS", "test": "CEREP protein kinase assay", "format": "biochemical"}, "[10]": {"biological_target": "T8, EGFR (Homo sapiens, UniProt P00533)", "T8 construct": "purchased CEREP Panlabs (Eurofins)", "T8 sequence (P00533 25-1210)": "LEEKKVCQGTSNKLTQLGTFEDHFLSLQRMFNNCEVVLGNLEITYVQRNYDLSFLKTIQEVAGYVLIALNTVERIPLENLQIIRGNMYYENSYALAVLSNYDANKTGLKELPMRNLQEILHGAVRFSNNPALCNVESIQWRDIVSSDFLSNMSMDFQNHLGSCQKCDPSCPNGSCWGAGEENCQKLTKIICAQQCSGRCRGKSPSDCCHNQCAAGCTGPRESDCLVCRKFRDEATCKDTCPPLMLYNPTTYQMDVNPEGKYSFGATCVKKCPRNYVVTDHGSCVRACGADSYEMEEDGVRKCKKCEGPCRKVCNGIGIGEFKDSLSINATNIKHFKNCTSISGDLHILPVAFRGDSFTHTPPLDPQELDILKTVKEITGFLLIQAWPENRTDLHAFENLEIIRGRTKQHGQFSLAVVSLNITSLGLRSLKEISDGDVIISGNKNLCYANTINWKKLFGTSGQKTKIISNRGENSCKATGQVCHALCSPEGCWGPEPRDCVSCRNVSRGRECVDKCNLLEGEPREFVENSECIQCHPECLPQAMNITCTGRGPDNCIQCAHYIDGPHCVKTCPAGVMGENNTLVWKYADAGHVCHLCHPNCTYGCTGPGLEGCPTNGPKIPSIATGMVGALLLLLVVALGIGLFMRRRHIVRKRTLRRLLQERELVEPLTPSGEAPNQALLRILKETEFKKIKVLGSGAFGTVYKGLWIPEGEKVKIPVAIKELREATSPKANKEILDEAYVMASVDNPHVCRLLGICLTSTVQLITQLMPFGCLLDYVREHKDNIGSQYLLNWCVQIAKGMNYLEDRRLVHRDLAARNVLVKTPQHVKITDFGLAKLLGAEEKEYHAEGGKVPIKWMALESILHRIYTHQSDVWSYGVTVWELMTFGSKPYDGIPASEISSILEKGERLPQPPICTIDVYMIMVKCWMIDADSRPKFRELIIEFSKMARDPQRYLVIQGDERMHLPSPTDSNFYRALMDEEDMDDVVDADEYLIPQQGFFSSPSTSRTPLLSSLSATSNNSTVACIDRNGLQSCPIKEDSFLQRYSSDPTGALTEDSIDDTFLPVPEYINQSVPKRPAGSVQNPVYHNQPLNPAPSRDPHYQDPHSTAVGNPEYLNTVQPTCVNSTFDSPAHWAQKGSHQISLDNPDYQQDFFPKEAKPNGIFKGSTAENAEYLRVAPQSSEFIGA", "test": "CEREP protein kinase assay", "format": "biochemical"}, "[11]": {"biological_target": "T9, PDK1 (Homo sapiens, UniProt O15530)", "T9 construct": "purchased CEREP Panlabs (Eurofins)", "T9 sequence (O15530 1-556)": "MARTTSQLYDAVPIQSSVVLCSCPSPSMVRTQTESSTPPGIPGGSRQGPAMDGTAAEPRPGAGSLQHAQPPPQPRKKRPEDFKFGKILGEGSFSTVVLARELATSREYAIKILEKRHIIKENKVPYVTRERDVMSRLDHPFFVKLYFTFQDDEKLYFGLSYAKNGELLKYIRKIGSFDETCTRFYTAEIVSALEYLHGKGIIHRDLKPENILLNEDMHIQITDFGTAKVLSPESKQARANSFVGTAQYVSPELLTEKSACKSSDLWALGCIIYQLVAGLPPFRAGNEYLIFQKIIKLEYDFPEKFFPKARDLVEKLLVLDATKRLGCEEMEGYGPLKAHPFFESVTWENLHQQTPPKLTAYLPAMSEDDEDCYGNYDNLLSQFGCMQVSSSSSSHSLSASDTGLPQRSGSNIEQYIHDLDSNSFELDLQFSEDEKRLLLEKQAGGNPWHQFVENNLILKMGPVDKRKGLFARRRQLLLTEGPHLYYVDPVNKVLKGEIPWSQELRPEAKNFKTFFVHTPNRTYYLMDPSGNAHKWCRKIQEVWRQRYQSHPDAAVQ", "test": "CEREP protein kinase assay", "format": "biochemical"}}, "data": [{"smiles": "O=c1[nH]ccc2cc(F)c(NS(=O)(=O)c3ccc(N4CC[C@@H](O)C4)s3)cc12", "note": "[LSN3213128, N-(6-Fluoro-1-oxo-1,2-dihydroisoquinolin-7-yl)-5-[(3R)-3-hydroxypyrrolidin-1-yl]thiophene-2-sulfonamide]", "values": [{"measurement": "tolerability of efficacy studies", "setting": "[1]", "result": "toxicity upon repeated dosing"}, {"measurement": "inhibition at 0.2 µM", "setting": "[2]; @ 0.2 uM", "result": -6.65, "unit": "%"}, {"measurement": "inhibition at 2 µM", "setting": "[2]; @ 2 uM", "result": 6.65, "unit": "%"}, {"measurement": "inhibition at 20 µM", "setting": "[2]; @ 20 uM", "result": 42, "unit": "%"}, {"measurement": "tumor dUMP levels", "setting": "[3]; low folate chow, 4 h, up to 60 mg/kg", "result": "unchanged"}, {"measurement": "dose at which tumor ZMP response appears to saturate", "setting": "[3]; nude mice on low folate chow, 4 h post PO dose", "result": 1, "unit": "mg/kg"}, {"measurement": "inhibition at 0.2 µM", "setting": "[4]; @ 0.2 uM", "result": -1.93, "unit": "%"}, {"measurement": "inhibition at 2 µM", "setting": "[4]; @ 2 uM", "result": 4.7, "unit": "%"}, {"measurement": "inhibition at 20 µM", "setting": "[4]; @ 20 uM", "result": 5.92, "unit": "%"}, {"measurement": "inhibition at 0.2 µM", "setting": "[5]; @ 0.2 uM", "result": -7.95, "unit": "%"}, {"measurement": "inhibition at 2 µM", "setting": "[5]; @ 2 uM", "result": 2.73, "unit": "%"}, {"measurement": "inhibition at 20 µM", "setting": "[5]; @ 20 uM", "result": 3.99, "unit": "%"}, {"measurement": "inhibition at 0.2 µM", "setting": "[6]; @ 0.2 uM", "result": -32.5, "unit": "%"}, {"measurement": "inhibition at 2 µM", "setting": "[6]; @ 2 uM", "result": -9.31, "unit": "%"}, {"measurement": "inhibition at 20 µM", "setting": "[6]; @ 20 uM", "result": -3.2, "unit": "%"}, {"measurement": "inhibition at 0.2 µM", "setting": "[7]; @ 0.2 uM", "result": -4.06, "unit": "%"}, {"measurement": "inhibition at 2 µM", "setting": "[7]; @ 2 uM", "result": 7.54, "unit": "%"}, {"measurement": "inhibition at 20 µM", "setting": "[7]; @ 20 uM", "result": 17.3, "unit": "%"}, {"measurement": "inhibition at 0.2 µM", "setting": "[8]; @ 0.2 uM", "result": -10.5, "unit": "%"}, {"measurement": "inhibition at 2 µM", "setting": "[8]; @ 2 uM", "result": 10.4, "unit": "%"}, {"measurement": "inhibition at 20 µM", "setting": "[8]; @ 20 uM", "result": 55, "unit": "%"}, {"measurement": "inhibition at 0.2 µM", "setting": "[9]; @ 0.2 uM", "result": -2.01, "unit": "%"}, {"measurement": "inhibition at 2 µM", "setting": "[9]; @ 2 uM", "result": -0.829, "unit": "%"}, {"measurement": "inhibition at 20 µM", "setting": "[9]; @ 20 uM", "result": 11.7, "unit": "%"}, {"measurement": "inhibition at 0.2 µM", "setting": "[10]; @ 0.2 uM", "result": -11.7, "unit": "%"}, {"measurement": "inhibition at 2 µM", "setting": "[10]; @ 2 uM", "result": 2.87, "unit": "%"}, {"measurement": "inhibition at 20 µM", "setting": "[10]; @ 20 uM", "result": -0.46, "unit": "%"}, {"measurement": "inhibition at 0.2 µM", "setting": "[11]; @ 0.2 uM", "result": 14.1, "unit": "%"}, {"measurement": "inhibition at 2 µM", "setting": "[11]; @ 2 uM", "result": 15.8, "unit": "%"}, {"measurement": "inhibition at 20 µM", "setting": "[11]; @ 20 uM", "result": 26.8, "unit": "%"}]}]}
